Experimental data taken from ChEMBL document CHEMBL1133327, “4-Thiazolidinones: novel inhibitors of the bacterial enzyme MurB” (Bioorg Med Chem Lett, 2000).

Key:
[1] = target: T1, UDP-N-acetylenolpyruvoylglucosamine reductase (Escherichia coli K-12, UniProt P08373); test: Inhibition of bacterial enzyme UDP-N-acetylmuramate dehydrogenase
T1 sequence (P08373 whole entry): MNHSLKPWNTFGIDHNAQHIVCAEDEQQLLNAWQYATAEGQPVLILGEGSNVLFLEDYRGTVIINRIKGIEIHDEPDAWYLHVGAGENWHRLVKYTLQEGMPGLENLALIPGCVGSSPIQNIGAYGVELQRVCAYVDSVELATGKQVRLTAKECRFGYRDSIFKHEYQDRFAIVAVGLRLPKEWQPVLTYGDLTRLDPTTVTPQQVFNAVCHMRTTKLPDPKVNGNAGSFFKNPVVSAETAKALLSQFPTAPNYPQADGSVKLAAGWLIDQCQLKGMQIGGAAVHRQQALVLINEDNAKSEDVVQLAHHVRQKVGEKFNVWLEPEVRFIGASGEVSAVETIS

[2] = Compound was tested for in vitro inhibitory activity against the bacterial enzyme UDP-N-acetylmuramate dehydrogenase

| SMILES | IC50 [1] | IC50 [2] [µM] |
| --- | --- | --- |
| CC1SC(c2cccc(Oc3ccc(C(C)(C)C)cc3)c2)N([C@@H](Cc2ccccc2)C(=O)O)C1=O (stereo partly specified) | Not Active | – |
| CC(C)(C)c1ccc(Oc2cccc(C3SC(CC(=O)NNc4ccccc4)C(=O)N3[C@@H](CO)C(=O)O)c2)cc1 (stereo partly specified) | Not Active | – |
| CC(C)(C)c1ccc(Oc2cccc(C3SCC(=O)N3[C@@H](CO)C(=O)O)c2)cc1 (stereo partly specified) | Not Active | – |
| CCCC[C@H](C(=O)O)N1C(=O)CSC1c1cccc(Oc2ccc(C(C)(C)C)cc2)c1 (stereo partly specified) | – | 7.7 |
| CC(C)(C)c1ccc(Oc2cccc(C3SCC(=O)N3[C@@H](Cc3ccccc3)C(=O)O)c2)cc1 (stereo partly specified) | Not Active | – |
| CC(C)(C)c1ccc(Oc2cccc(C3SC(CC(=O)NNc4ccccc4)C(=O)N3[C@@H](Cc3ccccc3)C(=O)O)c2)cc1 (stereo partly specified) | Not Active | – |
| CC(C)(C)c1ccc(Oc2cccc(C3SC(CC(=O)NNc4ccccc4)C(=O)N3[C@@H](CCCN)C(=O)O)c2)cc1 (stereo partly specified) | Not Active | – |
| CCCC[C@@H](C(=O)O)N1C(=O)C(CC(=O)NNc2ccccc2)SC1c1cccc(Oc2ccc(C(C)(C)C)cc2)c1 (stereo partly specified) | – | 11 |
| CC1SC(c2cccc(Oc3ccc(C(C)(C)C)cc3)c2)N(CC(=O)O)C1=O (stereo unspecified) | Not Active | – |
| CC(C)(C)c1ccc(Oc2cccc(C3SCC(=O)N3CC(=O)O)c2)cc1 (stereo unspecified) | Not Active | – |
| CC(C)(C)c1ccc(Oc2cccc(C3SC(CC(=O)NNc4ccccc4)C(=O)N3[C@@H](CC(=O)O)C(=O)O)c2)cc1 (stereo partly specified) | Not Active | – |
| CC(C)(C)c1ccc(Oc2cccc(C3SCC(=O)N3[C@@H](CC(=O)O)C(=O)O)c2)cc1 (stereo partly specified) | Not Active | – |
| CC(C)(C)c1ccc(Oc2cccc(C3SC(CC(=O)NNc4ccccc4)C(=O)N3CC(=O)O)c2)cc1 (stereo unspecified) | Not Active | – |
| CCCC[C@H](C(=O)O)N1C(=O)C(CC(=O)NNc2ccccc2)SC1c1cccc(Oc2ccc(C(C)(C)C)cc2)c1 (stereo partly specified) | – | 7.7 |

Further lines, results first:

| IC50 [1] | IC50 [2] [µM] | SMILES |
| --- | --- | --- |
| Not Active | – | CC1SC(c2cccc(Oc3ccc(C(C)(C)C)cc3)c2)N([C@@H](CCCN)C(=O)O)C1=O (stereo partly specified) |
| Not Active | – | CC1SC(c2cccc(Oc3ccc(C(C)(C)C)cc3)c2)N([C@@H](CO)C(=O)O)C1=O (stereo partly specified) |
| Not Active | – | CC1SC(c2cccc(Oc3ccc(C(C)(C)C)cc3)c2)N([C@@H](CC(=O)O)C(=O)O)C1=O (stereo partly specified) |
| Not Active | – | CC(C)(C)c1ccc(Oc2cccc(C3SCC(=O)N3[C@@H](CCCN)C(=O)O)c2)cc1 (stereo partly specified) |
| – | 28.4 | CCCC[C@@H](C(=O)O)N1C(=O)CSC1c1cccc(Oc2ccc(C(C)(C)C)cc2)c1 (stereo partly specified) |
| – | 14 | CCCC[C@@H](C(=O)O)N1C(=O)C(C)SC1c1cccc(Oc2ccc(C(C)(C)C)cc2)c1 (stereo partly specified) |
| – | 10 | CCCC[C@H](C(=O)O)N1C(=O)C(C)SC1c1cccc(Oc2ccc(C(C)(C)C)cc2)c1 (single isomer, unassigned) |
